# Data published in publication PMC10223552 (Pharmaceuticals, 2023).
# Tests used:
# Format in all cases: cell-based
# [1] = tested on: BJ normal skin fibroblast; test: MTT cytotoxicity test, BJ normal fibroblasts; conditions: Homo sapiens, 48 h treatment
# Description: The studies were conducted on two breast cancer cell lines—MCF-7 (ER+PR+/HER2-negative) and MDA-MB-231 (ER/PR/HER2-negative) and human normal fibroblast cell line BJ. The cell lines were obtained from American Type Culture Collection (ATCC, Manassas, VA, USA) and were cultured at 37 °C in the presence of 5% CO2 in the atmosphere. The culture media (Eagle’s Minimum Essential Medium for MCF-7 and BJ, Leibovitz’s L-15 Medium for MDA-MB-231, Corning, NY, USA), was supplemented with 10% fetal bovine serum. The cell’s morphology was examined under a Nikon Eclipse Ti inverted phase contrast microscope (Nikon, Tokyo, Japan). The authenticity of tested cell lines was verified by short tandem repeat (STR) genotyping in the Department of Forensic Medicine (Medical University of Lublin, Lublin, Poland).
# Cell viability based on metabolic activity was evaluated with the MTT colorimetric test based on the ability of viable cells to cause the transformation of tetrazolium salts MTT (3-[4,5-dimethylthiazol-2-yl]-2,5)diphenyltetrazolium bromide) into purple formazan, by cellular dehydrogenases. The cells were seeded into 96-well plates at a concentration of 2 × 10^5 cells/mL. Once 70–80% confluency was reached, tested compounds were added: ADS10310 and ADS1017 in concentrations ranging from 1 to 250 µM or DMSO as the vehicle in control cultures for the next 48 h (max. DMSO concentration <0.5%). Doxorubicin was used for comparison as the standard chemotherapeutic agent used in breast cancer treatment. After 48 h of incubation cell cultures were supplemented with 20 µL of 5 mg/mL MTT (Thermofisher, Waltham, MA, USA) stock in PBS (Corning, NY, USA), and the incubation was continued for 4 h at 37 °C. […] The solution absorbency was measured at 570 nm, using a PowerWave™ xs microplate spectrophotometer (BioTek Instruments, Winooski, VT, USA). […] IC50 values were determined using the AAT Bioquest IC50 calculator (AAT Bioquest, Inc. Quest Graph™ EC50 Calculator. https://www.aatbio.com/tools/ec50-calculator) (accessed on 6 September 2022).
# [2] = tested on: MCF-7 breast cancer cells; test: cells; conditions: Homo sapiens, MCF7; 48 h treatment; read-out: MTT IC50 MCF-7
# Description: (§1) The cell lines were obtained from American Type Culture Collection (ATCC, Manassas, VA, USA) and were cultured at 37 °C in the presence of 5% CO2 in the atmosphere. […] The cell’s morphology was examined under a Nikon Eclipse Ti inverted phase contrast microscope (Nikon, Tokyo, Japan). The authenticity of tested cell lines was verified by short tandem repeat (STR) genotyping in the Department of Forensic Medicine (Medical University of Lublin, Lublin, Poland).
# (§2) Cell viability based on metabolic activity was evaluated with the MTT colorimetric test based on the ability of viable cells to cause the transformation of tetrazolium salts MTT (3-[4,5-dimethylthiazol-2-yl]-2,5)diphenyltetrazolium bromide) into purple formazan, by cellular dehydrogenases. The cells were seeded into 96-well plates at a concentration of 2 × 10^5 cells/mL. […] Doxorubicin was used for comparison as the standard chemotherapeutic agent used in breast cancer treatment. After 48 h of incubation cell cultures were supplemented with 20 µL of 5 mg/mL MTT (Thermofisher, Waltham, MA, USA) stock in PBS (Corning, NY, USA), and the incubation was continued for 4 h at 37 °C. Next, the medium with MTT was removed, and obtained crystals were dissolved in 200 µL of DMSO (dimethyl sulfoxide, Avantor, Gliwice, Poland). The solution absorbency was measured at 570 nm, using a PowerWave™ xs microplate spectrophotometer (BioTek Instruments, Winooski, VT, USA). The experiment was performed three times with three replicates for each concentration of tested compounds.
# [3] = tested on: MDA-MB-231 breast cancer cells; test: cells; conditions: Homo sapiens, MDA-MB-231; 48 h treatment; read-out: MTT IC50 MDA-MB-231
# Description: as §1, §2
smiles,measurement,setting,value
"COc1cccc2c1C(=O)c1c(O)c3c(c(O)c1C2=O)C[C@@](O)(C(=O)CO)C[C@@H]3O[C@H]1C[C@H](N)[C@H](O)[C@H](C)O1 [Doxorubicin, reference compound]",IC50,[1],4.87 µM
same,IC50,[2],2120 nM
same,IC50,[3],1850 nM
